Values quoted from earlier work, collected in patent US6413717B1, “Methods for indentifying anti-cancer agents” (Corixa Corporation, priority 1998, dated 2002).

What was measured:
human melanoma cells = details: IFN-β 2000 U and MEZ 10 ng/mL
mda-7 = details: IFN-β 2000 U and MEZ 10 ng/mL, agents known to modulate gene expression

SMILES: C=C(C)[C@@]12O[C@@]3(c4ccccc4)O[C@@H]1[C@@H]1[C@@H]4O[C@]4(CO)[C@@H](O)[C@]4(O)C(=O)C(C)=C[C@H]4[C@@]1(O3)[C@H](C)[C@H]2OC(=O)/C=C/C=C/c1ccccc1 [mezerein]
- proliferative potential (human melanoma cells): irreversible loss of proliferative potential
- terminal differentiation (human melanoma cells): induction of terminal differentiation
- mda-7 expression (mda-7): induce an increase
